# Data published in ChEMBL document CHEMBL5223073, “Andrographolide suppresses cisplatin-induced endothelial hyperpermeability through activation of PI3K/Akt and eNOS -derived nitric oxide” (Bioorg Med Chem, 2020).
# Activity calls are given as the source filed them. The calls are words filed in the database; no cut-off is given here.
# What was measured:
# HUVEC [1] = test: Inhibition of cisplatin-induced TRPC1 phosphorylation in [32P] orthophosphate labeled HUVEC cells at […] incubated for 15 mins in presence of cisplatin by Western blot analysis; format: cell-based; settings: Homo sapiens
# [2] = target: Nuclear factor NF-kappa-B complex (Homo sapiens) (UniProt Q00653+P19838+Q04206); test: Inhibition of cisplatin-induced NF-kappaB activation in HUVEC cell nuclear extract assessed as reduction in NF-kappaB-DNA binding activity at 100 uM incubated for 1 hr by electrophoretic mobility shift assay; format: subcellular; settings: Nucleus
# [3] = target: T1, NF-kappa-B inhibitor alpha (Homo sapiens) (UniProt P25963); test: Inhibition of cisplatin-induced phosphorylation of IkappaBalpha at Ser32/36 residue in HUVEC cells at 100 uM incubated for 1 hr by Western blot analysis; format: cell-based
# T1 sequence (whole entry): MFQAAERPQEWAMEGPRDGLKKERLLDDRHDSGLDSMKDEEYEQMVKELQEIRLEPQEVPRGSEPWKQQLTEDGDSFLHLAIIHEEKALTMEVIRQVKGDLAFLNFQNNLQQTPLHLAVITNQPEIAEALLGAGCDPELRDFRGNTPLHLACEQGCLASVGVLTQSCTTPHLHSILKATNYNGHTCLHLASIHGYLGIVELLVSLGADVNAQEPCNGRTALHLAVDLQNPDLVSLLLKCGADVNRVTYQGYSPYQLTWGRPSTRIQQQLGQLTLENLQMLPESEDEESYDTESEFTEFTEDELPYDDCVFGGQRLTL
# [4] = target: Transcription factor p65 (Homo sapiens) (UniProt Q04206); test: Inhibition of cisplatin-induced phosphorylation of p65 subunit at Ser536 residue in HUVEC cells at 100 uM incubated for 1 hr by Western blot analysis; format: cell-based
# HUVEC [5] = test: Inhibition of cisplatin-induced PKCalpha translocation in HUVEC cells at 100 uM incubated for 15 mins in presence of cisplatin by Western blot analysis; format: functional, cell-based; settings: Homo sapiens
# HUVEC [6] = test: Inhibition of cisplatin-induced TRPC1 phosphorylation in [32P] orthophosphate labeled HUVEC cells at 100 uM incubated for 15 mins in presence of cisplatin by Western blot analysis; format: cell-based; settings: Homo sapiens
# HUVEC [7] = test: Inhibition of cisplatin-induced store operated Ca2+ release in HUVEC cells at 100 uM preincubated with compound followed by cisplatin stimulation by Fura-2 AM staining based calcium influx assay; format: functional, cell-based; settings: Homo sapiens
# HUVEC [8] = test: Improvement in cisplatin-induced endothelial monolayer integrity in HUVEC cells assessed as increase in transendothelial electric resistance at 100 uM preincubated with compound followed by cisplatin stimulation and measured after 45 mins; format: functional, cell-based; settings: Homo sapiens
# Nuclear factor NF-kappa-B complex (Homo sapiens), sequence (P19838 whole entry, looked up): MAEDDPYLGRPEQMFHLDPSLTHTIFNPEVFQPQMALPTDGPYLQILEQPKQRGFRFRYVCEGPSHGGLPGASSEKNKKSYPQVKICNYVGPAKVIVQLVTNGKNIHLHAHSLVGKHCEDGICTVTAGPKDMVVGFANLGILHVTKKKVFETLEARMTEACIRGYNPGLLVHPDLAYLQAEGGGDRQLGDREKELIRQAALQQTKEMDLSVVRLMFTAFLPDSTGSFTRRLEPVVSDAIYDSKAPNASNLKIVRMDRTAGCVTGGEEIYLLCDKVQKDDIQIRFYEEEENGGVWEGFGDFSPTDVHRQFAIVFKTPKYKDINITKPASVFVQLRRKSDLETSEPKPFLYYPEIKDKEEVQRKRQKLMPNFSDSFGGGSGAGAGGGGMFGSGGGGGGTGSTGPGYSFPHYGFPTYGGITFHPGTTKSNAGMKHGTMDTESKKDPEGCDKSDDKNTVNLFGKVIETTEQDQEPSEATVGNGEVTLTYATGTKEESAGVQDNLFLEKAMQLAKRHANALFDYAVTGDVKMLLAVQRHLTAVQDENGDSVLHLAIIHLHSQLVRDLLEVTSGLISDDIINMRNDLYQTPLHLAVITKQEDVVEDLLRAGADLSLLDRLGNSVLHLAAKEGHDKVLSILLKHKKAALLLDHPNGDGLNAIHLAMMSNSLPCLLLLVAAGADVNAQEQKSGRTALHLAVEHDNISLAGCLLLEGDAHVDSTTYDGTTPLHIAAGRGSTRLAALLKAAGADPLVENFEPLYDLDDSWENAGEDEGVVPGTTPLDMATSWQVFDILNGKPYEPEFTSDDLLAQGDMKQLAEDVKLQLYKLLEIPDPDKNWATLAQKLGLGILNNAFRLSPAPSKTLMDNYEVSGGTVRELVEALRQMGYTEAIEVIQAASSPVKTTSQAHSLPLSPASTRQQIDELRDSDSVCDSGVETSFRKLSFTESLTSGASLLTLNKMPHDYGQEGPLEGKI
# Nuclear factor NF-kappa-B complex (Homo sapiens), sequence (Q00653 whole entry, looked up): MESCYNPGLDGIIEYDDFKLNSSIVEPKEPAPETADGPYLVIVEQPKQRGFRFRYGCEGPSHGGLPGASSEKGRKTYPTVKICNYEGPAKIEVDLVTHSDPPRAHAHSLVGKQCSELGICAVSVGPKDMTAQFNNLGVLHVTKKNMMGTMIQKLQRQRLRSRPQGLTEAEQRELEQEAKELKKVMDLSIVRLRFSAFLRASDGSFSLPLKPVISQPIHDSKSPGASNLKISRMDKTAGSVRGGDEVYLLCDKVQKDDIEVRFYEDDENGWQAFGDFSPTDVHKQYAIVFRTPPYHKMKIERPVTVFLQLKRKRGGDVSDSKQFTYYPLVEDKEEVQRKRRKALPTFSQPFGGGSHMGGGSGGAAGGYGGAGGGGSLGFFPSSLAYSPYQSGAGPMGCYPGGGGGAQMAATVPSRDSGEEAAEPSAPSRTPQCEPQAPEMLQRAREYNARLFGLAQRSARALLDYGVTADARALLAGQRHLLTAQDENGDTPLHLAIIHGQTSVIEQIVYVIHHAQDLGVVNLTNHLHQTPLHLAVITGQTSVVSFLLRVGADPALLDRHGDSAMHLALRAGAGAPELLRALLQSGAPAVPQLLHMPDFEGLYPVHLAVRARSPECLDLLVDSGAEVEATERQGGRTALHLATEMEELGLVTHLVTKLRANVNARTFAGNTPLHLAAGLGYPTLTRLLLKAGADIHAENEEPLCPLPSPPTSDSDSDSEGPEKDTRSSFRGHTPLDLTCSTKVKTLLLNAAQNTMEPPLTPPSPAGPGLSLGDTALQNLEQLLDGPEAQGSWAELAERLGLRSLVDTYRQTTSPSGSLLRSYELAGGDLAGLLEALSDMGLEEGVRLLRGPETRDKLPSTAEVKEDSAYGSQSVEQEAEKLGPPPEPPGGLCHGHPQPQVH
# Nuclear factor NF-kappa-B complex (Homo sapiens), sequence (Q04206 whole entry, looked up): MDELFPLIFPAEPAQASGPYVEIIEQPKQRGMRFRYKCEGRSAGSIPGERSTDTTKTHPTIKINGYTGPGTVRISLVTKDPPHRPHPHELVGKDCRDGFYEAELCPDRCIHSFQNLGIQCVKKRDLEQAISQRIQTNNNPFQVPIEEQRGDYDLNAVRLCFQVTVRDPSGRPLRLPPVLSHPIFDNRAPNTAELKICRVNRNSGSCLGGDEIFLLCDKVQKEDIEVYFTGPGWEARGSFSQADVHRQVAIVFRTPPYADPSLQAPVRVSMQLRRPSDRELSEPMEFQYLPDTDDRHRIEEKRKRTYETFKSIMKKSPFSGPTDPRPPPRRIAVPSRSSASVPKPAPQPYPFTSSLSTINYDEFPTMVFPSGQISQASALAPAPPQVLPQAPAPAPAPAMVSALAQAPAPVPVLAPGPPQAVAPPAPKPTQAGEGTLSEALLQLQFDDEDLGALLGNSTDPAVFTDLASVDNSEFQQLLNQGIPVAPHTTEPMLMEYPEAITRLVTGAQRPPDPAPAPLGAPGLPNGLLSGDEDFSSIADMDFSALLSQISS
# Transcription factor p65 (Homo sapiens), sequence (Q04206 whole entry): as the sequence (Q04206 whole entry, looked up) above
inhibition [2],inhibition [3],inhibition [4],SMILES,inhibition (HUVEC [1]),inhibition (HUVEC [5]),inhibition (HUVEC [6]),inhibition (HUVEC [7]),Activity (HUVEC [8])
,,,Cn1c2ccccc2c2c3c(c4c5ccccc5n(CCC#N)c4c21)CNC3=O,Active,,,,
Active,Active,Active,CC(=O)N[C@@H](C(=O)O)C(C)(C)SN=O,,Active,Active,Active,Active
